From the supplement of paper PMC6045584

Legend:
Experiment in all cases: area under dose-response curve of surviving fraction (unscaled, Aref=0) (surviving fraction x log10(nM)); higher = more resistant
Conditions in all cases: exposure time: 5 days; dose range 0.5-1000 nM
[1] = compound: CNCc1ccc(-c2[nH]c3cc(F)cc4c3c2CCNC4=O)cc1
Procedure, shortened: (§1)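 Surviving fractions were fitted by 3-parameter logistic regression in the drc R package to give dose-response survival curves. They came from tumour cell lines treated for five days with eight inhibitor concentrations from 0.5 to 1000 nM and read by CellTiter-Glo luminescence against DMSO-only wells. The area under the curve is the unscaled activity area. It was calculated over log10 dose with Aref = 0.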

MLN-4924 = compound: NS(=O)(=O)OC[C@@H]1C[C@@H](n2ccc3c(N[C@H]4CCc5ccccc54)ncnc32)C[C@@H]1O [MLN-4924]
Procedure, shortened: as §1

[2] = compound: C[C@@H](Oc1cc(-c2cnn(C3CCNCC3)c2)cnc1N)c1c(Cl)ccc(F)c1Cl
Procedure, shortened: as §1

[3] = compound: CCn1c(C(=O)N(C2CC2)C2CC2)cc2c3c(ncn3C)c(Nc3cc(C)n(C)n3)nc21
Procedure, shortened: as §1

ABIRATERONE = compound: C[C@]12CC[C@H](O)CC1=CC[C@@H]1[C@@H]2CC[C@]2(C)C(c3cccnc3)=CC[C@@H]12 [ABIRATERONE]
Procedure, shortened: as §1

FORETINIB = compound: COc1cc2c(Oc3ccc(NC(=O)C4(C(=O)Nc5ccc(F)cc5)CC4)cc3F)ccnc2cc1OCCCN1CCOCC1 [FORETINIB]
Procedure, shortened: as §1

DASATINIB = compound: Cc1nc(Nc2ncc(C(=O)Nc3c(C)cccc3Cl)s2)cc(N2CCN(CCO)CC2)n1 [DASATINIB]
Procedure, shortened: as §1

CRIZOTINIB = compound: C[C@@H](Oc1cc(-c2cnn(C3CCNCC3)c2)cnc1N)c1c(Cl)ccc(F)c1Cl [CRIZOTINIB]
Procedure, shortened: as §1

[4] = compound: COc1cc2ncnc(Nc3ccc(F)c(Cl)c3)c2cc1NC(=O)/C=C/CN1CCCCC1
Procedure, shortened: as §1

SORAFENIB = compound: CNC(=O)c1cc(Oc2ccc(NC(=O)Nc3ccc(Cl)c(C(F)(F)F)c3)cc2)ccn1 [SORAFENIB]
Procedure, shortened: as §1

TEMOZOLOMIDE = compound: Cn1nnc2c(C(N)=O)ncn2c1=O [TEMOZOLOMIDE]
Procedure, shortened: as §1

XAV-939 = compound: Oc1nc(-c2ccc(C(F)(F)F)cc2)nc2c1CSCC2 [XAV-939]
Procedure, shortened: as §1

OLAPARIB = compound: O=C(c1cc(Cc2n[nH]c(=O)c3ccccc23)ccc1F)N1CCN(C(=O)C2CC2)CC1 [OLAPARIB]
Procedure, shortened: as §1

SOTRASTAURIN/AEB071 = compound: CN1CCN(c2nc(C3=C(c4c[nH]c5ccccc45)C(=O)NC3=O)c3ccccc3n2)CC1 [SOTRASTAURIN/AEB071]
Procedure, shortened: as §1

Test System | area under dose-response curve [1] | area under dose-response curve (MLN-4924) | area under dose-response curve [2] | area under dose-response curve [3] | area under dose-response curve (ABIRATERONE) | area under dose-response curve (FORETINIB) | area under dose-response curve (DASATINIB) | area under dose-response curve (CRIZOTINIB) | area under dose-response curve [4] | area under dose-response curve (SORAFENIB) | area under dose-response curve (TEMOZOLOMIDE) | area under dose-response curve (XAV-939) | area under dose-response curve (OLAPARIB) | area under dose-response curve (SOTRASTAURIN/AEB071)
HELA CERVIX | 3.62 | 3.35 | 3.13 | 3.32 | 3.73 | 3.06 | 3.16 | 3.42 | 3.73 | 3.38 | 3.6 | 3.57 | 3.66 | 3.56
KPD BONE | 3.18 | 2.61 | 2.95 | 3.28 | 3.4 | 3.08 | 2.1 | 3.08 | 3.13 | 3.2 | 3.35 | 3.17 | 3.12 | 3.41
SNU475 LIVER | 3.13 | 3.13 | 2.77 | 3.18 | 3.42 | 3.18 | 1.64 | 3.26 | 2.94 | 3.6 | 3.4 | 3.07 | 3.11 | 3.15
HSSYII SYNOVIAL | 2.44 | 1.85 | 2.49 | 3.02 | 3.22 | 2.59 | 2.17 | 2.85 | 3 | 3.17 | 3.23 | 3.04 | 2.67 | 2.99
LM7 BONE | 2.67 | 2.09 | 2.6 | 3.31 | 3.33 | 3.1 | 1.58 | 3.05 | 2.98 | 3.39 | 3.38 | 3.45 | 2.84 | 3.08
MFM223 BREAST | 2.94 | 2.82 | 2.92 | 3.58 | 3.88 | 3.08 | 2.52 | 3.69 | 3.27 | 3.79 | 4.05 | 3.24 | 2.99 | 2.95
JIMT1 BREAST | 3.03 | 3.19 | 3.01 | 3.27 | 3.3 | 3.01 | 1.66 | 3.18 | 2.5 | 3.34 | 3.4 | 3.26 | 3.01 | 3.24
CAL120 BREAST | 3.19 | 2.22 | 2.89 | 3.06 | 3.35 | 3.06 | 1.98 | 3.24 | 3.14 | 3.19 | 3.22 | 3.24 | 2.89 | 3.28
HT1080 SOFT TISSUE | 3.02 | 2.52 | 3.25 | 3.3 | 3.37 | 3.13 | 2.37 | 3.28 | 3.22 | 3.4 | 3.41 | 2.94 | 2.92 | 3.53
CAL51 BREAST | 2.78 | 2.56 | 2.77 | 3.3 | 3.32 | 2.75 | 1.95 | 2.87 | 3.29 | 3.36 | 3.41 | 3.24 | 2.99 | 3.16
HOS BONE | 3.35 | 2.11 | 3.05 | 3.32 | 3.5 | 3.06 | 2.29 | 3.13 | 3.27 | 3.42 | 3.42 | 3.4 | 3.37 | 3.38
T47D BREAST | 3.24 | 2.34 | 3.15 | 3.36 | 3.62 | 3.43 | 3.08 | 3.51 | 3.49 | 3.6 | 3.49 | 3.54 | 3.11 | 3.44
OSHN BONE | 3.21 | 2.48 | 3.17 | 3.38 | 3.67 | 3.09 | 2.81 | 3.28 | 3.52 | 3.51 | 3.58 | 3.53 | 3.28 | 3.32
HCC78 LUNG | 3.18 | 1.64 | 2.08 | 2.67 | 3.32 | 1.78 | 1.88 | 2.26 | 2.51 | 3.05 | 2.97 | 2.69 | 3.38 | 3.62
MDAMB231 BREAST | 3.03 | 2.4 | 2.81 | 3.25 | 3.29 | 2.91 | 1.44 | 2.93 | 3.08 | 3.13 | 3.27 | 2.95 | 3.09 | 3.34
